Earlier results in PubChem BioAssay AID1259409 (Chemical Carcinogenesis Research Information System (CCRIS), 2018).

Tested on: rodent chemically induced tumor inhibition, incidence and multiplicity
Test: CCRIS tumor inhibitor studies

CCOC(=O)C(C)(C)Oc1ccc(Cl)cc1
tumour outcome (control, treated, inhibition, significance) (Carcinogen: N-NITROSOBIS(2-HYDROXYPROPYL)AMINE, 53609-64-6, Dose [Inhibitor]: 0.25% IN DIET FOLLOWING LAST CARCINOGEN DOSE FOR 30 WK (STUDY DURATION: 35 WK), Route [Inhibitor]: ORAL, Species: HAMSTER, Strain/Sex: SYRIAN/MALE, Target Tissue: Type of Lesion: KIDNEY: RENAL CELL CARCINOMA, Dose [Carcinogen]: 500 MG/KG BW 1/WK FOR 5 WK, Promoter: NONE USED): 1/17 (6%), 2/16 (13%), -117%, not calculated | tumour outcome (control, treated, inhibition, significance) (Carcinogen: N-NITROSOBIS(2-HYDROXYPROPYL)AMINE, 53609-64-6, Dose [Inhibitor]: 0.25% IN DIET FOLLOWING LAST CARCINOGEN DOSE FOR 30 WK (STUDY DURATION: 35 WK), Route [Inhibitor]: ORAL, Species: HAMSTER, Strain/Sex: SYRIAN/MALE, Target Tissue: Type of Lesion: LUNG: ADENOCARCINOMA, Dose [Carcinogen]: 500 MG/KG BW 1/WK FOR 5 WK, Promoter: NONE USED): 3/17 (18%), 0/16 (0%), 100%, not calculated | tumour outcome (control, treated, inhibition, significance) (Carcinogen: N-NITROSOBIS(2-HYDROXYPROPYL)AMINE, 53609-64-6, Dose [Inhibitor]: 0.25% IN DIET FOLLOWING LAST CARCINOGEN DOSE FOR 30 WK (STUDY DURATION: 35 WK), Route [Inhibitor]: ORAL, Species: HAMSTER, Strain/Sex: SYRIAN/MALE, Target Tissue: Type of Lesion: LUNG: ADENOMA, Dose [Carcinogen]: 500 MG/KG BW 1/WK FOR 5 WK, Promoter: NONE USED): 16/17 (94%), 10/16 (63%), 33%, not calculated | tumour outcome (control, treated, inhibition, significance) (Carcinogen: N-NITROSOBIS(2-HYDROXYPROPYL)AMINE, 53609-64-6, Dose [Inhibitor]: 0.25% IN DIET FOLLOWING LAST CARCINOGEN DOSE FOR 30 WK (STUDY DURATION: 35 WK), Route [Inhibitor]: ORAL, Species: HAMSTER, Strain/Sex: SYRIAN/MALE, Target Tissue: Type of Lesion: PANCREAS: ADENOCARCINOMA, Dose [Carcinogen]: 500 MG/KG BW 1/WK FOR 5 WK, Promoter: NONE USED): 8/17 (47%), 3/16 (19%), 60%, not calculated | tumour outcome (control, treated, inhibition, significance) (Carcinogen: N-NITROSOBIS(2-HYDROXYPROPYL)AMINE, 53609-64-6, Dose [Inhibitor]: 0.25% IN DIET FOLLOWING LAST CARCINOGEN DOSE FOR 30 WK (STUDY DURATION: 35 WK), Route [Inhibitor]: ORAL, Species: HAMSTER, Strain/Sex: SYRIAN/MALE, Target Tissue: Type of Lesion: PANCREAS: ADENOMA, Dose [Carcinogen]: 500 MG/KG BW 1/WK FOR 5 WK, Promoter: NONE USED): 5/17 (29%), 4/16 (25%), 14%, not calculated | tumour outcome (control, treated, inhibition, significance) (Carcinogen: N-NITROSOBIS(2-HYDROXYPROPYL)AMINE, 53609-64-6, Dose [Inhibitor]: 0.5% IN DIET FOLLOWING LAST CARCINOGEN DOSE FOR 30 WK (STUDY DURATION: 35 WK), Route [Inhibitor]: ORAL, Species: HAMSTER, Strain/Sex: SYRIAN/MALE, Target Tissue: Type of Lesion: KIDNEY: RENAL CELL CARCINOMA, Dose [Carcinogen]: 500 MG/KG BW 1/WK FOR 5 WK, Promoter: NONE USED): 1/17 (6%), 3/17 (18%), -200%, not calculated | tumour outcome (control, treated, inhibition, significance) (Carcinogen: N-NITROSOBIS(2-HYDROXYPROPYL)AMINE, 53609-64-6, Dose [Inhibitor]: 0.5% IN DIET FOLLOWING LAST CARCINOGEN DOSE FOR 30 WK (STUDY DURATION: 35 WK), Route [Inhibitor]: ORAL, Species: HAMSTER, Strain/Sex: SYRIAN/MALE, Target Tissue: Type of Lesion: LUNG: ADENOCARCINOMA, Dose [Carcinogen]: 500 MG/KG BW 1/WK FOR 5 WK, Promoter: NONE USED): 3/17 (18%), 2/17 (12%), 33%, not calculated | tumour outcome (control, treated, inhibition, significance) (Carcinogen: N-NITROSOBIS(2-HYDROXYPROPYL)AMINE, 53609-64-6, Dose [Inhibitor]: 0.5% IN DIET FOLLOWING LAST CARCINOGEN DOSE FOR 30 WK (STUDY DURATION: 35 WK), Route [Inhibitor]: ORAL, Species: HAMSTER, Strain/Sex: SYRIAN/MALE, Target Tissue: Type of Lesion: LUNG: ADENOMA, Dose [Carcinogen]: 500 MG/KG BW 1/WK FOR 5 WK, Promoter: NONE USED): 16/17 (94%), 9/17 (53%), 44%, p<0.05 | tumour outcome (control, treated, inhibition, significance) (Carcinogen: N-NITROSOBIS(2-HYDROXYPROPYL)AMINE, 53609-64-6, Dose [Inhibitor]: 0.5% IN DIET FOLLOWING LAST CARCINOGEN DOSE FOR 30 WK (STUDY DURATION: 35 WK), Route [Inhibitor]: ORAL, Species: HAMSTER, Strain/Sex: SYRIAN/MALE, Target Tissue: Type of Lesion: PANCREAS: ADENOCARCINOMA, Dose [Carcinogen]: 500 MG/KG BW 1/WK FOR 5 WK, Promoter: NONE USED): 8/17 (47%), 1/17 (6%), 87%, p<0.05 | tumour outcome (control, treated, inhibition, significance) (Carcinogen: N-NITROSOBIS(2-HYDROXYPROPYL)AMINE, 53609-64-6, Dose [Inhibitor]: 0.5% IN DIET FOLLOWING LAST CARCINOGEN DOSE FOR 30 WK (STUDY DURATION: 35 WK), Route [Inhibitor]: ORAL, Species: HAMSTER, Strain/Sex: SYRIAN/MALE, Target Tissue: Type of Lesion: PANCREAS: ADENOMA, Dose [Carcinogen]: 500 MG/KG BW 1/WK FOR 5 WK, Promoter: NONE USED): 5/17 (29%), 2/17 (12%), 59%, not calculated

N[C@@H]1C[C@H]1c1ccccc1
tumour outcome (control, treated, inhibition, significance) (Carcinogen: N-METHYL-N-NITROSOUREA, 684-93-5, Dose [Inhibitor]: 10 MG/KG OF HIGH (20%) FAT DIET BEGINNING 1 WK POST CARCINOGEN DOSE AND CONTINUING FOR DURATION OF STUDY (STUDY DURATION, Route [Inhibitor]: ORAL, Species: RAT, Strain/Sex: SPRAGUE-DAWLEY/FEMALE, Target Tissue: Type of Lesion: MAMMARY GLAND: TUMOR, Dose [Carcinogen]: 40 MG/KG ONCE, Promoter: NONE USED): 78%, 88%, -13%, not calculated | tumour outcome (control, treated, inhibition, significance) (Carcinogen: N-METHYL-N-NITROSOUREA, 684-93-5, Dose [Inhibitor]: 10 MG/KG OF LOW (3%) FAT DIET BEGINNING 1 WK POST CARCINOGEN DOSE AND CONTINUING FOR DURATION OF STUDY (STUDY DURATION:, Route [Inhibitor]: ORAL, Species: RAT, Strain/Sex: SPRAGUE-DAWLEY/FEMALE, Target Tissue: Type of Lesion: MAMMARY GLAND: TUMOR, Dose [Carcinogen]: 40 MG/KG ONCE, Promoter: NONE USED): 78%, 83%, -6%, not calculated

Cn1c(=O)[nH]c2nc[nH]c2c1=O
tumour outcome (control, treated, inhibition, significance) (Carcinogen: URETHANE, 51-79-6, Dose [Inhibitor]: 0.05 UMOL/G BW GIVEN AT 6 HR INTERVALS DURING THE PERIOD OF 0 TO 36 HR AFTER CARCINOGEN TREATMENT FOLLOWED BY 5 MO OBSER, Route [Inhibitor]: INTRAPERITONEAL, Species: MOUSE, Strain/Sex: ICR/FEMALE, Target Tissue: Type of Lesion: LUNG: PAPILLARY ADENOMA, Dose [Carcinogen]: 0.1 MG/G BW ONCE, Promoter: NONE USED): 31/59 (53%), 18/36 (50%), 6%, not significant | tumour outcome (control, treated, inhibition, significance) (Carcinogen: URETHANE, 51-79-6, Dose [Inhibitor]: 0.25 UMOL/G BW 1/D DURING THE PERIOD OF 5 TO 9 D AFTER CARCINOGEN TREATMENT FOLLOWED BY OBSERVATION PERIOD UNTIL END OF, Route [Inhibitor]: INTRAPERITONEAL, Species: MOUSE, Strain/Sex: ICR/FEMALE, Target Tissue: Type of Lesion: LUNG: PAPILLARY ADENOMA, Dose [Carcinogen]: 1 MG/G BW ONCE, Promoter: NONE USED): 49/53 (93%), 39/43 (91%), 2%, not significant

COC(=O)c1cc(O)c(O)c(O)c1
tumour outcome (control, treated, inhibition, significance) (Carcinogen: 7,12-DIMETHYLBENZ[A]ANTHRACENE, 57-97-6, Dose [Inhibitor]: 0, 20 UMOL IN 0.4 ML ACETONE 20 MIN PRIOR TO EACH PROMOTER DOSE (STUDY DURATION: 47 WK), Route [Inhibitor]: DERMAL, Species: MOUSE, Strain/Sex: CF-1/FEMALE, Target Tissue: Type of Lesion: SKIN: CARCINOMA, Dose [Carcinogen]: 100 NMOL IN 0.2 ML ACETONE ONCE): 67%, 24%, 64%, not calculated | tumour outcome (control, treated, inhibition, significance) (Carcinogen: 7,12-DIMETHYLBENZ[A]ANTHRACENE, 57-97-6, Dose [Inhibitor]: 0, 20 UMOL IN 0.4 ML ACETONE 20 MIN PRIOR TO EACH PROMOTER DOSE (STUDY DURATION: 47 WK), Route [Inhibitor]: DERMAL, Species: MOUSE, Strain/Sex: CF-1/FEMALE, Target Tissue: Type of Lesion: SKIN: PAPILLOMA, Dose [Carcinogen]: 100 NMOL IN 0.2 ML ACETONE ONCE): 94%, 84%, 11%, p<0.025

Cc1ncc(CO)c(CO)c1O
tumour outcome (control, treated, inhibition, significance) (Carcinogen: 7,12-DIMETHYLBENZ[A]ANTHRACENE, 57-97-6, Dose [Inhibitor]: 0.04% IN DRINKING WATER DAILY STARTING 4 WK BEFORE CARCINOGEN TREATMENT AND CONTINUING FOR DURATION OF STUDY (STUDY DURA, Route [Inhibitor]: ORAL, Species: MOUSE, Strain/Sex: 101/MALE, FEMALE, Target Tissue: Type of Lesion: SKIN: PAPILLOMA, Dose [Carcinogen]: 225 UG IN 0.15 ML ACETONE ONCE, Promoter: CROTON OIL, 8001-28-3): 17/19 (89%), 17/18 (94%), -6%, not calculated | tumour outcome (control, treated, inhibition, significance) (Carcinogen: HYDRAZINE SULFATE, 10034-93-2, Dose [Inhibitor]: 1.1 MG/D IN DIET STARTING 1 WK PRIOR TO ADMINISTRATION OF CARCINOGEN UNTIL END OF EXPERIMENT (STUDY DURATION: APPROXIMAT, Route [Inhibitor]: ORAL, Species: MOUSE, Strain/Sex: SWISS/MALE, FEMALE, Target Tissue: Type of Lesion: LUNG: TUMORS, Dose [Carcinogen]: 1.1 MG/D 5 D/WK UNTIL 12 MO OF AGE, Promoter: NONE USED): 22/29 (76%), 26/33 (79%), -4%, not significant | tumour outcome (control, treated, inhibition, significance) (Carcinogen: ISONIAZID, 54-85-3, Dose [Inhibitor]: 1.1 MG/MOUSE/D SIMULTANEOUSLY WITH CARCINOGEN 6 D/WK (STUDY DURATION: 24 MO), Route [Inhibitor]: INTRAGASTRIC, Species: MOUSE, Strain/Sex: SWISS/MALE, Target Tissue: Type of Lesion: LUNG: TUMOR, Dose [Carcinogen]: 1.1 MG/MOUSE/D SIMULTANEOUSLY WITH AGENT, Promoter: NONE USED): 15/29 (52%), 2/12 (17%), 67%, p<0.1
